Columns and labels:
MlpILTPS2 = biological target: T1, MlpILTPS2 (Melampsora laricis-populina, UniProt A0A858E4Y6); assay: in vitro terpene synthase assay, SPME GC-MS; type: biochemical; conditions: room temperature, 60 min
T1 construct: gene ILTPS2; full-length cDNA from infected Populus nigra leaves in pET-32a, N-terminal His-tag, E. coli BL21(DE3) pLysS
T1 sequence (A0A858E4Y6 1-316): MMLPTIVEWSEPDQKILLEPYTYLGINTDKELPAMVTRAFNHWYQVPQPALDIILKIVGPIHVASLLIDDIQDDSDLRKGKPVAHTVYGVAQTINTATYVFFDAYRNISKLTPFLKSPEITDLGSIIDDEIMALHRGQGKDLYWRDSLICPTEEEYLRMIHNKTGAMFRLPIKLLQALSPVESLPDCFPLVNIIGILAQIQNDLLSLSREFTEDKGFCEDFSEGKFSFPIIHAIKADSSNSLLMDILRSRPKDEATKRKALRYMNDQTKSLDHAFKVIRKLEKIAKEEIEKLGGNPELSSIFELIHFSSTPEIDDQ

MlpILTPS1 = biological target: T2, MlpILTPS1 (Melampsora laricis-populina, UniProt A0A858E4Y8); assay: in vitro terpene synthase assay, SPME GC-MS; type: biochemical; conditions: room temperature, 60 min
T2 construct: gene ILTPS1; full-length cDNA from infected Populus nigra leaves in pET-32a, N-terminal His-tag, E. coli BL21(DE3) pLysS
T2 sequence (A0A858E4Y8 1-324): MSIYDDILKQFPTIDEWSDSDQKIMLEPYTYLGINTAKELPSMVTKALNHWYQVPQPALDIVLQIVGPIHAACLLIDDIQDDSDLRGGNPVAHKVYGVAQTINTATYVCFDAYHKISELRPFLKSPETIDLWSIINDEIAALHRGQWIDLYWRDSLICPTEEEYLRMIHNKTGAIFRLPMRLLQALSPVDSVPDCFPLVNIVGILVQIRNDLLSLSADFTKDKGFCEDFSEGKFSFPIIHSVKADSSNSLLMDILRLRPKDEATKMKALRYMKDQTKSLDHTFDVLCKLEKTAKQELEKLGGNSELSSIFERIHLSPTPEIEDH

MliILTPS1 = biological target: T3, MliILTPS1 (Melampsora lini, UniProt A0A858E7J4); assay: in vitro terpene synthase assay, SPME GC-MS; type: biochemical; conditions: room temperature, 60 min
T3 construct: gene ILTPS1; full-length synthesized cDNA in pET-32a, N-terminal His-tag, E. coli BL21(DE3) pLysS
T3 sequence (A0A858E7J4 1-329): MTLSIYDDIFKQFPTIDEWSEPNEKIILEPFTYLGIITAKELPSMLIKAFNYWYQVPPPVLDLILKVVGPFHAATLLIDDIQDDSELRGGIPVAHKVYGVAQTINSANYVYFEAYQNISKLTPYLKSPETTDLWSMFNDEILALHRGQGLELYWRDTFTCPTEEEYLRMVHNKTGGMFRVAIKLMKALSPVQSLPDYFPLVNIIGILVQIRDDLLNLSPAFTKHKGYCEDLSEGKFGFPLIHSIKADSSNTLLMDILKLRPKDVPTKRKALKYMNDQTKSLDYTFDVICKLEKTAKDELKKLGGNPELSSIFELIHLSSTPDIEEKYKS

MliGGDPS = biological target: T4, MliGGDPS (Melampsora lini, UniProt A0A858E6N7); assay: radiochemical IDS assay, TLC; type: biochemical; conditions: MOPS pH 7.0, 10 mM MgCl2, 30 °C; co-substrate [1-14C]-IDP; product GGDP
T4 construct: gene GGDPS; full-length synthesized cDNA in pET-32a, N-terminal His-tag, E. coli BL21(DE3) pLysS
T4 sequence (A0A858E6N7 1-365): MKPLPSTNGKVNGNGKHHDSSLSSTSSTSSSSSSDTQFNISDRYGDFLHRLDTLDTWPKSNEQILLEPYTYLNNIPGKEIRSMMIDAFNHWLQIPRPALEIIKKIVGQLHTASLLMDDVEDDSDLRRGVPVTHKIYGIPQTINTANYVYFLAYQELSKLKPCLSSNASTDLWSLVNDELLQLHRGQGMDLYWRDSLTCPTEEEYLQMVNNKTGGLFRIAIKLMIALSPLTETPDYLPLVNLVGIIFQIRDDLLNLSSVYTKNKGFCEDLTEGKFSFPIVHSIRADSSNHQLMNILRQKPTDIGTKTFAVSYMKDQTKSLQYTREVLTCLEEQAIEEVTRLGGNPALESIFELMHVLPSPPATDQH

MlpGGDPS = biological target: T5, MlpGGDPS (Melampsora laricis-populina, UniProt A0A858E7G0); assay: radiochemical IDS assay, TLC; type: biochemical; conditions: MOPS pH 7.0, 10 mM MgCl2, 30 °C; co-substrate [1-14C]-IDP; product GGDP
T5 construct: gene GGDPS; full-length cDNA from infected Populus nigra leaves in pET-32a, N-terminal His-tag, E. coli BL21(DE3) pLysS
T5 sequence (A0A858E7G0 1-364): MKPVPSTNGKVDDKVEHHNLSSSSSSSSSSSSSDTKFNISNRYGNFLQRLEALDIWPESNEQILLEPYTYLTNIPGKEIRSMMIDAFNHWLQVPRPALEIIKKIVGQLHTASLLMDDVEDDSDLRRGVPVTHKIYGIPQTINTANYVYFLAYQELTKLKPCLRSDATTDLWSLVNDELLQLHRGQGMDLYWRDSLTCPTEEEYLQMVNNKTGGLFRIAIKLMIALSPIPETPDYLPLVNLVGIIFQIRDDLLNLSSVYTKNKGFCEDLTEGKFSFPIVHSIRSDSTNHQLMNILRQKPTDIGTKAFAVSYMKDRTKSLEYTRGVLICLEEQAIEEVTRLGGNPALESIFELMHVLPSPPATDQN

[1] = substrate: CC(C)=CCC/C(C)=C/CC/C(C)=C/CO[P@@](=O)(O)OP(=O)(O)O; assay: radiochemical terpene synthase assay, hexane extraction; type: biochemical, Melampsora lini; conditions: MOPSO pH 7.0, 10 mM MgCl2, 0.05 mM MnCl2, room temperature, labelled compound
Procedure: radiochemical terpene synthase assay, hexane extraction on MliILTPS2 | the apparent Km values of MliILTPS2 and MliILTPS3 using FDP as substrate were determined

[2] = substrate: CC(C)=CCC/C(C)=C/CC/C(C)=C/CO[P@@](=O)(O)OP(=O)(O)O; assay: as above; type: biochemical, Melampsora lini; conditions: MOPSO pH 7.0, 10 mM MgCl2, 0.05 mM MnCl2, room temperature, labelled compound; remark: listed apart in the source
Procedure: radiochemical terpene synthase assay, hexane extraction on MliILTPS3 | the apparent Km values of MliILTPS2 and MliILTPS3 using FDP as substrate were determined

For CC(C)=CCC/C(C)=C/COP(=O)(O)OP(=O)(O)O [GDP], the “in vitro terpene synthase assay, SPME GC-MS” value (MlpILTPS2; product linalool) was “In contrast, MlpILTPS2 produced only linalool”, the “in vitro terpene synthase assay, SPME GC-MS” value (MlpILTPS1; products (E)-beta-ocimene (major), linalool (minor)) was “When GDP was provided as a substrate, MlpILTPS1 produced (E)-β-ocimene as a major product” and the “in vitro terpene synthase assay, SPME GC-MS” value (MliILTPS1; product linalool) was “both MliILTPS1 and MliILTPS3 converted GDP to linalool”.

CC(C)=CCC/C(C)=C/CC/C(C)=C/COP(=O)(O)OP(=O)(O)O [FDP] was tested, and the “radiochemical IDS assay, TLC” value (MliGGDPS) was “MliGGDPS was active with DMADP, GDP, and FDP to produce GGDP”, the “in vitro terpene synthase assay, SPME GC-MS” value (MlpILTPS2; product (E)-nerolidol) was “MlpILTPS2 catalyzed the formation of (E)-nerolidol” and the “radiochemical IDS assay, TLC” value (MlpGGDPS) was “MlpGGDPS catalyzed the formation of GGDP using either DMADP, GDP, or FDP”. For the same molecule, the “in vitro terpene synthase assay, SPME GC-MS” value (MlpILTPS1; product (E,E)-alpha-farnesene) was “using FDP as substrate, MlpILTPS1 produced (E,E)-α-farnesene” and the “in vitro terpene synthase assay, SPME GC-MS” value (MliILTPS1; product (E)-nerolidol) was “both MliILTPS1 and MliILTPS3 converted FDP to (E)-nerolidol”.

B1: MliILTPS2 (Melampsora lini) (protein)
chain: MSIYDDIFKQFPTIDEWSESNEKIMLEPYTHLGINTAKELPSMVTKAFNHWYQVPQPALDIILQIVGPIHAACLLIDDIQDDSDLRGGNPVAHKVYGVAQTINTATYVCFDAYHKISKLTPFSKSPETTDLWSIINDEIAALHRGQWIDLYWRDSLICPTEEEYLRMIHNKTGAIFRLPIKLLQALSPVDSPPDCFPLVNVVGILVQIRNDLLSLSPDFTKDKGFCEDFSEGKFSFPIIHSVKADSSNSLLIDILRLRPKDEPTKRKALRYMKDQTKSLDHTFDVLCKLEKTAKEELEKLGGNSELSSILELIQVSPIPEIADR
notes: full-length synthesized cDNA in pET-32a, N-terminal His-tag, E. coli BL21(DE3) pLysS
Work on B1 yielded a Km [1] of 1.9 ± 0.3 µM and a kcat [1] of 0.01 ± 0.001 s⁻¹.

B2: MliILTPS3 (Melampsora lini) (protein)
chain: MSIYDDIFKQFPMIDEWSDSDEKILVEPYTYLGINTAKELPSMVTKAFNHWYQVPQPALDIILQIIGPIHAASLLLDDIQDDSDLRGGNPVAHKVYGVAQTINTATYVCFDAYHKVSQLTPFLKSPETTDLWSIINDEIAALHRGQGIELYWRDSLMCPTEEEYLRMIHNKTGAIFRLPIKLLQALSSVDSPPDCFPLLNIVGILFQIQNDISSLSPDFTKDKGFCEDFSEGKFSFPIIHSVKADSSNSLLMDILRLRPKDEATKRKALRFMKDQTKSLDHTFHVLCKLKKTAQEELEKLGGNSELSSILERIQVSPTPEIEDR
notes: as for B1
Work on B2 yielded a Km [2] of 1.6 ± 0.2 µM and a kcat [2] of 0.05 ± 0.004 s⁻¹.

Reference: article PMC7484799, “Evolution of isoprenyl diphosphate synthase-like terpene synthases in fungi” (Scientific Reports, 2020)
